Test results published in patent US20260234153A1, “NON-COVALENT DIMER CATION OF PURINE/PYRIMIDINE AND AMINO ACID, SALT THEREOF, PREPARATION METHOD THEREFOR, AND USE THEREOF” (Suzhou Protonation Chain Biotechnology Co., Ltd, priority 2023, published 2026).

Experiments:
[1] = system: SH-SY5Y human neuroblastoma cells; assay: Parkinson's disease cell model (6-OHDA), cell viability; format: cell-based; settings: 24 h, read-out: Cell viability (%)
From the text: The salts of example 51 and examples 57 were taken as experimental compounds, and selegiline was taken as a control compound.
(§1) Then, the cell viability was detected.

[2] = system: GES-1 human gastric mucosal epithelial cells; assay: Ethanol induced damage model of gastric mucosal epithelial cells, cell viability; format: cell-based; settings: GES1, GES-1 cells, 7% ethanol 12 h, then compound concentration 0.5 mg/mL, 24 h
Procedure: Chronic alcoholics are prone to gastric mucosal damage due to long-term alcohol damage.
The salts of example 51 and example 57 were taken as experimental compounds, and glycyrrhetinic acid was taken as a control compound. A blank control group (without ethanol) and a model group (with ethanol but without the salts of the examples or glycyrrhetinic acid) were set.
The cells were cultured in a complete RPMI 1640 medium for 6 h.
as §1

Compound	viability at 500 µg/mL [1]	viability at 500 µg/mL [2]
C#CCN(C)[C@H](C)Cc1ccccc1 [Selegiline, selegiline]	37.5%	–
CC1(C)[C@@H](O)CC[C@]2(C)[C@H]3C(=O)C=C4[C@@H]5C[C@@](C)(C(=O)O)CC[C@]5(C)CC[C@@]4(C)[C@]3(C)CC[C@@H]12 [Glycyrrhetinic acid, glycyrrhetinic acid]	–	61.8%
